In ChEMBL document CHEMBL1201862, “PubChem BioAssay data set” (2004):
“And” between values parts separate entries of the source, which are not always exact repeats. Equal entries are not always repeated.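 48-hour exposure; five concentrations; linearly interpolated endpoints. GI50: concentration for 50% inhibition of growth.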 The source made the active and inactive calls. No stated cut-off is given here; in the data, active = GI50 up to about 1.1 µM and inactive = higher.

Legend:
Assay in all cases: growth of human tumour cells (NCI), 48 h
[1] = test system: HCT-15
[2] = test system: OVCAR-8
[3] = test system: MOLT-4
[4] = test system: SF-268
[5] = test system: LOX IMVI
[6] = test system: SF-295
[7] = test system: SK-OV-3
[8] = test system: SK-MEL-2
[9] = test system: RXF 393
[10] = test system: MDA-MB-435
[11] = test system: 786-0
[12] = test system: SK-MEL-5
[13] = test system: BT-549
[14] = test system: HT-29
[15] = test system: HCC 2998
[16] = test system: NCI/ADR-RES
[17] = test system: KM12
[18] = test system: DU-145
[19] = test system: HCT-116

SMILES	GI50 [1] [µM]	GI50 [2]	GI50 [3]	GI50 [4]	GI50 [5]	GI50 [6]	GI50 [7]	GI50 [8]	GI50 [9]	GI50 [10]	GI50 [11]	GI50 [12]	GI50 [13]	GI50 [14]	GI50 [15]	GI50 [16]	GI50 [17]	GI50 [18]	GI50 [19]
Cc1nc(Cl)nc(Cl)c1C	> 100	> 100 µM (inactive)	> 100 µM (inactive)	> 100 µM (inactive)	> 100 µM (inactive)	> 100 µM (inactive)	> 100 µM (inactive)	> 100 µM (inactive)	> 100 µM (inactive)	> 100 µM (inactive)	> 100 µM (inactive)	> 100 µM (inactive)	75.7 µM (inactive)	> 100 µM (inactive)	> 100 µM (inactive)	> 100 µM (inactive)	> 100 µM (inactive)	–	–
Cn1c2ccc3cc2c(=S)c2cc(ccc21)OCCOCCOCCOCCOCCOCCO3	> 10	> 10 µM (inactive)	> 10 µM (inactive)	> 10 µM (inactive)	> 10 µM (inactive)	> 10 µM (inactive)	> 10 µM (inactive)	> 10 µM (inactive)	> 10 µM (inactive)	–	> 10 µM (inactive)	> 10 µM (inactive)	> 10 µM (inactive)	> 10 µM (inactive)	> 10 µM (inactive)	> 10 µM (inactive)	> 10 µM (inactive)	> 10 µM (inactive)	> 10 µM (inactive)
Cc1cccc(C2SCc3nc4ccccc4n32)c1 (centres undefined)	18.6	36.1 µM (inactive)	25.9 µM (inactive)	36.7 µM (inactive)	28.6 µM (inactive)	30.8 µM (inactive)	24.7 µM (inactive)	18.5 µM (inactive)	14.9 µM (inactive)	–	25.1 µM (inactive)	14.3 µM (inactive)	–	27.9 µM (inactive)	–	–	19.8 µM (inactive)	–	17.7 µM (inactive)
CC1=COC(C)(C=C(C#N)C#N)CC1 (centres undefined)	> 10	52.6 µM (inactive)	40.9 µM (inactive)	> 100 µM (inactive)	–	> 100 µM (inactive)	> 100 µM (inactive)	–	> 100 µM (inactive)	32.4 µM (inactive)	> 100 µM (inactive)	58.1 µM (inactive)	–	> 100 µM (inactive)	> 100 µM (inactive)	48.4 µM (inactive)	34.8 µM (inactive)	> 100 µM (inactive)	33 µM (inactive)
CCOP(=O)(OCC)C(C)(CC)NC(=O)C(C(F)(F)F)C(F)(F)F (centres undefined)	> 100	> 100 µM (inactive)	> 49.3 µM (inactive) and 63.4 µM (inactive)	> 100 µM (inactive)	> 88.3 µM (inactive) and 72.3 µM (inactive)	> 100 µM (inactive)	> 100 µM (inactive)	> 100 µM (inactive)	> 100 µM (inactive)	> 100 µM (inactive) and > 87.7 µM (inactive)	40.4 µM (inactive) and 61.5 µM (inactive)	> 100 µM (inactive)	–	> 100 µM (inactive)	> 100 µM (inactive)	> 100 µM (inactive)	49.5 µM (inactive) and 58.2 µM (inactive)	> 100 µM (inactive)	> 100 µM (inactive)
N/C(=N\c1ccc(Cl)cc1)NS(=O)(=O)c1ccc(-c2ncccc2C(F)(F)F)s1	16.6	14.6 µM (inactive)	12.7 µM (inactive)	16.5 µM (inactive)	14 µM (inactive)	16.1 µM (inactive)	17.4 µM (inactive)	15.8 µM (inactive)	18.3 µM (inactive)	–	17.1 µM (inactive)	20.5 µM (inactive)	14.9 µM (inactive)	19.4 µM (inactive)	–	18.8 µM (inactive)	23.9 µM (inactive)	17.1 µM (inactive)	14 µM (inactive)
COc1ccc(N[S+]([O-])c2ccccc2OC)cc1 (centres undefined)	5.16	23.7 µM (inactive)	27 µM (inactive)	7.28 µM (inactive)	10.3 µM (inactive)	31.7 µM (inactive)	–	11.8 µM (inactive)	–	7.53 µM (inactive)	43.3 µM (inactive)	11.2 µM (inactive)	–	18.1 µM (inactive)	> 10 µM (inactive)	15.9 µM (inactive)	4.98 µM (inactive)	27.5 µM (inactive)	13.9 µM (inactive)
O=C(NC1=C(Cl)C(=O)c2ccccc2C1=O)C(=O)C(C(=O)c1ccc2ccccc2c1)C1OC(=O)c2ccccc21 (centres undefined)	3.77	4.61 µM (inactive)	2.06 µM (inactive)	4.53 µM (inactive)	1.08 µM (active)	3.3 µM (inactive)	13.2 µM (inactive)	4.94 µM (inactive)	4.49 µM (inactive)	1.7 µM (inactive)	5.92 µM (inactive)	0.564 µM (active)	3.48 µM (inactive)	4.07 µM (inactive)	9.55 µM (inactive)	–	3.09 µM (inactive)	10.6 µM (inactive)	3.52 µM (inactive)
O=NN(CCCl)C(=O)NCc1ccc[n+]([O-])c1	> 100	> 100 µM (inactive)	60.8 µM (inactive)	37.2 µM (inactive)	70.6 µM (inactive)	64.1 µM (inactive)	> 100 µM (inactive)	> 100 µM (inactive)	> 100 µM (inactive)	–	35.7 µM (inactive)	> 100 µM (inactive)	–	> 100 µM (inactive)	> 100 µM (inactive)	–	> 100 µM (inactive)	–	> 100 µM (inactive)
